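The compound was tested at five concentrations on cells cultured in 96-well plates, with a 48-hour exposure period. At the GI50, growth is halved.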 Calls of active or inactive are those of the source. Rule as the data show it: active = GI50 up to about 1.1 µM and inactive = higher.
Columns and labels:
Assay in all cases: NCI tumour cell line growth inhibition, 48 h
NCI-H23 = test system: NCI-H23
U-251 = test system: U-251
HOP-92 = test system: HOP-92
SNB-19 = test system: SNB-19
K562 = test system: K562
KM12 = test system: KM12
CCRF-CEM = test system: CCRF-CEM
SN12C = test system: SN12C
BT-549 = test system: BT-549
SF-539 = test system: SF-539
M14 = test system: M14
SF-268 = test system: SF-268
NCI-H522 = test system: NCI-H522
OVCAR-5 = test system: OVCAR-5
OVCAR-4 = test system: OVCAR-4
MDA-MB-231 = test system: MDA-MB-231
SK-MEL-2 = test system: SK-MEL-2
HCC 2998 = test system: HCC 2998
MOLT-4 = test system: MOLT-4
CAKI-1 = test system: CAKI-1
EKVX = test system: EKVX
786-0 = test system: 786-0
NCI-H226 = test system: NCI-H226
HT-29 = test system: HT-29
UACC-257 = test system: UACC-257
SR = test system: SR
HOP-62 = test system: HOP-62
UO-31 = test system: UO-31
NCI-H460 = test system: NCI-H460
TK-10 = test system: TK-10
HCT-116 = test system: HCT-116
SNB-75 = test system: SNB-75
ACHN = test system: ACHN
SF-295 = test system: SF-295
T47D = test system: T47D
COLO 205 = test system: COLO 205
PC-3 = test system: PC-3
MCF7 = test system: MCF7
MDA-N = test system: MDA-N
Hs-578T = test system: Hs-578T
IGROV-1 = test system: IGROV-1
SK-MEL-5 = test system: SK-MEL-5
Malme-3M = test system: Malme-3M
SW-620 = test system: SW-620
SK-OV-3 = test system: SK-OV-3
UACC-62 = test system: UACC-62
LOX IMVI = test system: LOX IMVI
NCI/ADR-RES = test system: NCI/ADR-RES
DU-145 = test system: DU-145
MDA-MB-435 = test system: MDA-MB-435
OVCAR-8 = test system: OVCAR-8
A498 = test system: A498
RXF 393 = test system: RXF 393
RPMI-8226 = test system: RPMI-8226
A549 = test system: A549
HCT-15 = test system: HCT-15

For `Nc1nc(=O)n(C2CC(O)C(CO)O2)c2nc(-c3ccc(-c4ccccc4)cc3)cnc12` (stereo unspecified), the GI50 (NCI-H23) was 99.3 µM (inactive), the GI50 (U-251) was 18.6 µM (inactive) and the GI50 (HOP-92) was 56.2 µM (inactive). The GI50 (SNB-19) was 29 µM (inactive), the GI50 (K562) was 38 µM (inactive) and the GI50 (KM12) was > 10 µM (inactive). The GI50 (CCRF-CEM) was 27.6 µM (inactive), the GI50 (SN12C) was 62.7 µM (inactive) and the GI50 (BT-549) was > 100 µM (inactive). The GI50 (SF-539) was 30 µM (inactive), the GI50 (M14) was > 100 µM (inactive) and the GI50 (SF-268) was 30.7 µM (inactive). The GI50 (NCI-H522) was 22.1 µM (inactive), the GI50 (OVCAR-5) was > 100 µM (inactive) and the GI50 (OVCAR-4) was > 100 µM (inactive). For the same molecule, the GI50 (MDA-MB-231) was 21.9 µM (inactive), the GI50 (SK-MEL-2) was 44.6 µM (inactive) and the GI50 (HCC 2998) was 41.9 µM (inactive). For the same molecule, the GI50 (MOLT-4) was 25.9 µM (inactive), the GI50 (CAKI-1) was > 100 µM (inactive) and the GI50 (EKVX) was 96.4 µM (inactive). The GI50 (786-0) was 40.1 µM (inactive), the GI50 (NCI-H226) was 25.6 µM (inactive) and the GI50 (HT-29) was > 100 µM (inactive). For the same molecule, the GI50 (UACC-257) was > 100 µM (inactive), the GI50 (SR) was 27.7 µM (inactive) and the GI50 (HOP-62) was 27.2 µM (inactive). The GI50 (UO-31) was > 100 µM (inactive), the GI50 (NCI-H460) was > 100 µM (inactive) and the GI50 (TK-10) was > 100 µM (inactive). The GI50 (HCT-116) was > 100 µM (inactive), the GI50 (SNB-75) was 23 µM (inactive) and the GI50 (ACHN) was > 100 µM (inactive). For the same molecule, the GI50 (SF-295) was 48.5 µM (inactive), the GI50 (T47D) was 18.6 µM (inactive) and the GI50 (COLO 205) was > 100 µM (inactive). The GI50 (PC-3) was 37.6 µM (inactive), the GI50 (MCF7) was 15.5 µM (inactive) and the GI50 (MDA-N) was 58.2 µM (inactive). The GI50 (Hs-578T) was 36.3 µM (inactive), the GI50 (IGROV-1) was > 100 µM (inactive) and the GI50 (SK-MEL-5) was 15.9 µM (inactive). For the same molecule, the GI50 (Malme-3M) was 41.7 µM (inactive), the GI50 (SW-620) was > 100 µM (inactive) and the GI50 (SK-OV-3) was > 100 µM (inactive). For the same molecule, the GI50 (UACC-62) was 25.3 µM (inactive), the GI50 (LOX IMVI) was 38.8 µM (inactive) and the GI50 (NCI/ADR-RES) was > 100 µM (inactive). The GI50 (DU-145) was > 100 µM (inactive), the GI50 (MDA-MB-435) was 97.7 µM (inactive) and the GI50 (OVCAR-8) was 67.9 µM (inactive). For the same molecule, the GI50 (A498) was > 100 µM (inactive), the GI50 (RXF 393) was 31.2 µM (inactive) and the GI50 (RPMI-8226) was > 100 µM (inactive). The GI50 (A549) was > 100 µM (inactive) and the GI50 (HCT-15) was greater than 100 µM.
